Experimental data as given in US7943606B2, “Compositions and methods to control abnormal cell growth” (CanCure Laboratories, LLC, priority 2005, dated 2011).

How the values were obtained:
[1] = test system: HL-60, HT-168, PC-3 and T47D cells; assay: Viability of four human cancer cell types by Trypan blue exclusion; type: cell-based
Method: PC-3 human prostate adenocarcinoma cells were cultured in 12-well plates in Ham's F12 cell culture medium supplemented with 7% fetal bovine serum; the medium was changed for fresh 10% medium 2 hours prior to treatments. HL-60 human leukemia cells (in flasks) and HT 168 human melanoma cells were cultured in RPMI 1640 medium supplemented with 10% FCS; treatment of HL-60 and HT-168 cells were performed in flasks and 12-well plates, respectively. T47D cells were cultured in 12-well plates in RPMI 1640 medium supplemented with 2 mM L-glutamine, 10 mM Hepes, 1 mM sodium pyruvate, 4.5 g/L glucose, 1.5 g/L sodium bicarbonate, 0.2 I.U. bovine insulin/ml, and 10% fetal bovine serum; the medium was changed for fresh 10% serum-containing medium 2 hours prior to treatments. All cells were incubated for 96 hours in the absence (□) or presence of 25 μM CCDTHT ? , 50 μM CCDTHT ? , or 75 μM CCDTHT (▪). In this experiment, the viability of the cell cultures was estimated by Trypan blue exclusion using hematocytometer, a technique well known to one having ordinary skill in the art. Three independently treated cell cultures, involving at least 300 cells for each treatment, were analyzed. The experimental error is indicated as std. dev.

MXT tumor = assay: MXT mouse mammary tumor model: tumor volume and survival; type: in vivo; settings: Example 31
From the text: Tumors were developed in first generation hybrid BDF1 (C57 B1 female×DBA/2 male) adult female mice kept at specified pathogen free (SPF) hygienic level. Suspensions of HL-60 human leukemia cells, or approximately 0.1 cm^3 volume of tumor tissue derived from HT-168 human melanoma, PC-3 human prostate adenocarcinoma, T47D human breast carcinoma, MXT mouse mammary cancer, or mouse B16 melanoma cells were implanted subcutaneously to develop the tumors. After 12-18 days when the tumor-bearing mice were first treated, the size of the tumors was in the 0.2-0.4 cm^3 range. All compounds used were dissolved in physiological (0.9%) saline (NaCl), and the agents, alone or in combinations, were applied subcutaneously or intraperitoneally in 50 μl volume. Tumor volume was determined by calipers in three dimensions; this technique is well known to one having ordinary skill in the art. Tumor volume was calculated according to the generally accepted formula: V=a^2×b×π/6, where “a” and “b” mean the shortest and longest diameter, respectively, of the measured tumor.
The mouse mammary MXT tumor was developed as described above. On day 7 after transplantation of tumor cells, the animals were either remained untreated (group 1) or were treated with 2 mg/kg of CisPt alone (Group 2), or 4 mg/kg of CisPt alone (Group 3), or 4.6 mg/kg of CCDTHT alone (Group 4), or 2 mg/kg of CisPt+4.6 mg/kg of CCDTHT (Group 5), or 4 mg/kg of CisPt+4.6 mg/kg of CCDTHT (Group 6). CCDTHT and CisPt were administered subcutaneously and intraperitoneally, respectively, once daily for 10 days, including a 2-day rest period after 5 days of treatment (i.e., the last treatment was on day 19). Each group consisted of 7 animals, and the mean values±std. dev. for tumor volumes and body weight are shown in TABLE 4 and TABLE 5, respectively. While in this tumor model CCDTHT alone reduced the tumor volume less effectively than in the human tumor models, it clearly added to the tumor volume-reducing effect of CisPt (TABLE 4). A dramatic reduction in tumor volume was particularly evident in Group 6 (4 mg/kg CisPt+4.6 mg/kg CCDTHT).
The mouse mammary MXT tumor model was developed and treated as described above. On day 7 the animals were either remained untreated (Group 1) or were treated with 3 mg/kg of CisPt (Group 2) or 3 mg/kg of CisPt+15 mg/kg of highly purified PALP (Group 3). CisPt and PALP were administered intraperitoneally and subcutaneously, respectively, seven times on every second day (i.e., treatments were terminated on day 21). Each group included 7 animals; the mean values±std. dev. for tumor volumes and body weight are shown in TABLE 6 and TABLE 7, respectively.
The mouse mammary MXT tumor model was developed and treated as described above. On day 7 the animals either remained untreated (Group 1) or were treated with 3 mg/kg CisPt (Group 2), 3 mg/kg CisPt+4.6 mg/kg of CCDTHT (Group 3), or 3 mg/kg CisPt+4.6 mg/kg of CCDTHT+15 mg/kg highly purified PALP (Group 4). CisPt was administered intraperitoneally 9-times once every second day; CCDTHT was administered for 15 days once daily; and PALP was administered 3 times every 3rd day. In each group 7 mice were included. The mean values±std. dev. for tumor volumes and body weights are shown in TABLE 9 and TABLE 10, respectively.

[2] = CisPt 2 mg/kg i.p. and/or CCDTHT 4.6 mg/kg s.c., once daily

`CC[N+](C)(CC)CCOCc1ccc2sc3ccccc3c(=O)c2c1.[I-]` [CCDTHT, N,N-diethyl-N-methyl-2-[(9-oxo-9H-thioxanthen-2-yl)methoxy]-ethanaminium iodide] was tested, and the “number of viable cancer cells, HL-60, HT-168, PC-3 and T47D” value ([1]; 50-75 μM, four days) was “strongly decreased”, the inhibition at 25 µM ([1]; Homo sapiens, 25 μM, 96 hours, Trypan blue, read-out: inhibition of cell proliferation, HL60, HT-168, PC-3 and T47D cells) was 40 to 55% and the cytotoxicity at 75 µM ([1]; Homo sapiens, 75 μM, 96 hours, Trypan blue, read-out: decrease in the number of viable cells, HL60, HT-168, PC-3 and T47D cells) was 65 to 85%. For the same compound, the survival (MXT tumor; CisPt 2 mg/kg and/or CCDTHT 4.6 mg/kg (groups 2, 4, 5)) was 30.6 ± 3.2 days, the “Tumor volume, Day 14” value (MXT tumor; [2]) was 4.14 ± 0.71 cm^3 and the “Tumor volume, Day 18” value (MXT tumor; [2]) was 6.62 ± 0.43 cm^3. The “Tumor volume, Day 21” value (MXT tumor; [2]) was 9.35 ± 0.69 cm^3 and the “Tumor volume, Day 7” value (MXT tumor; CisPt 2 mg/kg i.p. and/or CCDTHT 4.6 mg/kg s.c., start of treatment) was 0.43 ± 0.07 cm^3.
